Columns and labels:
CD-1 mice [1] = experiment: Sheep red blood cell (SRBC) delayed-type hypersensitivity mouse paw swelling; format: in vivo; details: 30 mg/kg; vehicle 89%
Protocol: The sheep red blood cells were first cleaned and counted as follows. 5 mls of the SRBC were spun down in a centrifuge at 3000 rpm for 10 minutes. The supernatant was removed and phosphate buffered saline (PBS), pH 7.4 added to the pellet. The pellet was mixed with the PBS buffer (5 mls) and spun down in a centrifuge at 3000 rpm for 10 minutes. The pellet was washed twice more with PBS buffer as described above. The pellet was then reconstituted in 5 mls of PBS buffer following the final wash. 10 μl of a 1 in 200 dilution of the sample of reconstituted sheep red blood cells (in trypan blue stain) was used to fill the counting chamber of a haemacytometer and the number of sheep red blood cells counted.
Male CD-1 mice (30-40 gms) were sensitised on day zero. The negative control group was sensitised with 100 μl PBS intraperitoneally (i.p.), while the positive control group and drug treated groups were sensitised with 1×10^7 SRBC (100 μl i.p.).
Animals were challenged 5 days later with SRBC. The SRBC were cleaned and counted as described above. Animals anaesthetised with halothane were challenged s.c. by injecting SRBC (3×10^8 cells in 20 μl) into the right hind paws and PBS (20 μl) into the left hind paws. […]
The difference in paw swelling between the saline-injected and SRBC-challenged contralateral paw of each mouse was calculated by measuring paw volume (mls) using a plethysmometer. […]

Jurkat cells = experiment: Jurkat cell viability (Acridine Orange/Ethidium Bromide); format: cell-based
Protocol: (A) Anti-TCR/CD28-mediated activation of Jurkat cells: Experiments involving anti-TCR/CD28-mediated activation of Jurkat T lymphocytes were carried out on 24-well cell culture plates. The plates were coated with a 1/100 dilution of rabbit anti-mouse IgG in sterile PBS (1×) and incubated overnight at 4OC. Unbound antibody was aspirated and the wells were gently rinsed with warm sterile PBS. The PBS was aspirated and the wells were coated with a 1/100 dilution of anti-TCR antibody (OKT-3) and a 1/200 dilution of anti-CD28 antibody (both antibodies pre-mixed prior to addition to the plates) in sterile PBS. The plates were then incubated for 1-2 hours at 37° C. Unbound antibody was aspirated and the wells were gently rinsed with warm PBS. The PBS was left on the plate until the Jurkat cells were ready to be added to the plate. The Jurkat cells were harvested from the T-75cm2 cell culture flasks and resuspended at a density of 0.5×10^6 cells per ml. The compounds were dissolved at a specified stock concentration (see results section) and diluted to the required concentration by adding the drug to the cell suspension. The cells were then pre-incubated with the compounds or with an equivalent volume of drug vehicle control (DMSO) for 30 minutes prior to adding the cell suspension to the antibody-coated plates. Cyclosporine A (1 μM) was used as a positive control to inhibit IL-2 production from activated T cells and was preincubated with the 6 cells as described above in parallel. The cells were then incubated on the plates with the acti-TCR/CD28 antibodies for 24 hours at 37° C. and 5% CO2 in a humidified atmosphere. After 24 hours, the cell suspension was removed from the plates and the cells were pelleted by centrifugation. The cell culture supernatant was saved and analysed for secreted IL-2 by ELISA. The cell pellet was saved and cell viability was measured using Acridine Orange/Ethidium Bromide cell viability staining solution.
The cell pellet was resuspended in 20 μl of Acridine Orange/Ethidium Bromide staining solution. A portion of this cell suspension was placed on a haemocytometer and analysed under a fluorescence microscope. […] The ratio of viable cells: non-viable cells were calculated for each activation time point/drug treatment.

[2] = tested on: β-hexosaminidase release from RBL-2H3 cells; details: RBL-2H3 cells stimulated by calcium ionophore A23187; Bioorg. Med. Chem. Lett. 19(20), 2009; cited from earlier work
BalbC mice = experiment: Arachidonic acid mouse ear oedema model; format: in vivo; details: 300 μg/ear in acetone, topical; arachidonic acid alone 86%
Protocol: The arrachidonic mouse ear oedema model is an acute inflammation model based on activation of ecosanoid pathways. The mouse ear oedema model was performed using BalbC mice (25-35 g), of either sex. The ear was treated by the topical application (10 μl) of solvent (acetone 100%) or test drug (300 μg/ear in acetone) or Indomethacin (300 μg/ear in acetone). After one hour, oedema was induced by the topical application of arachidonic acid (10 μl at 0.4 g/ml in acetone). The width of each ear was measured, both before and 60 min after the induction of oedema, using a micrometer screw gauge. Ear oedema was calculated by comparing the ear width before and after induction of oedema and expressed as percentage normal. Animals were killed using CO2, without recovering from sedation.

CD-1 mice [3] = experiment: Methylated bovine serum albumin (mBSA) delayed-type hypersensitivity mouse paw swelling; format: in vivo; details: 10 mg/kg i.p.; mBSA challenge alone 107%
Protocol: CD-1 mice (25-35 gms) were anaesthetised with halothane and immunised intradermal (i.d.) with mBSA/Freunds complete adjuvant containing Mycobacterium butyricum (FCA(B)) emulsion at four sites (62.5 μg/25 μl at each site) on the shaved chest on day 1. The mBSA/FCA(B) is prepared by emulsifying equal volumes of mBSA and FCA(B) solutions (the mBSA solution was first prepared in sterile isotonic saline at a concentration of 5 mg/mL). On days 8 and 9, mice were dosed intraperitoneal (i.p.) with either 1% carboxymethylcellulose (CMC), CycA or a novel compound in 1% CMC. Two hours after the second i.p. dose (day 9), anaesthetised mice were challenged, by injecting mBSA in saline subcutaneous (s.c.) in the dorsal surface of the right hind paw and s.c. in the left hind paw with saline alone (20 μl each injection). 24 hours later, mice were sacrificed by cervical dislocation, and the swelling of each paw was measured in triplicate with a plethysmometer.
Paw swelling (% difference)={mBSA injected paw volume (mls)}−{saline injected paw volume (mls)}×100%
Saline Injected Paw Volume (mls)

Balb/C mice = experiment: 5% DSS-induced murine colitis model; format: in vivo, mouse; details: for inhibition of DAI in DSS-induced colitis: 5% DSS colitis (FIG. 9)

Compound	SRBC paw swelling (CD-1 mice [1])	cell viability (Jurkat cells)	inhibition of β-hexosaminidase release [2]	ear swelling (increase in ear thickness) (BalbC mice)	mBSA paw swelling (CD-1 mice [3])	inhibition of DAI in DSS-induced colitis (Balb/C mice)	effect on DSS-induced weight loss (Balb/C mice; 5% DSS colitis, 30 mg/kg p.o. (FIG. 8))
O[C@@H]1c2ccccc2C[C@]1(Cc1ccccc1)C1=Cc2ccccc2C1 (mixture of isomers) [Compound 5, (R,S and SR)2-Benzyl-2,3-dihydro-1H,1′H-2,2′-biinden-1-ol]	60%	without affecting cell viability	dose-dependant inhibition	62%	72%	only 6 caused a significant	–
O[C@H]1c2ccccc2C[C@]1(Cc1ccccc1)C1=Cc2ccccc2C1 (mixture of isomers) [Compound 6, (S,S and RR)2-Benzyl-2,3-dihydro-1H,1′H-2,2′-biinden-1-ol]	52%	without affecting cell viability	–	50%	71%	significant (P<0.01) inhibition	ameliorated
